Laboratory results published in article PMC5613062 (Investigational New Drugs, 2017).
Read-outs that look alike come from different tables or passages of the source.

Assays:
[1] = design: method as in LoRusso et al 2005; settings: Phase I-II trial; ref LoRusso et al 2005; cited from earlier work
[2] = design: method as in product label; settings: ref product label; cited from earlier work
[3] = Pharmacokinetics alone and in combination, selumetinib + temsirolimus arm; assay type: in vivo, human; settings: for Cmax / AUC(0-t) / AUC(0–12): geometric mean (% CV); for AUC(0-t): read-out: AUC(0–8); for AUC(0–12): read-out: AUC(0–12); for tmax: median (range)
Procedure: PK parameters were derived using non-compartmental analysis. Cmax and tmax were determined by visual inspection of the plasma concentration-time profiles. AUC(0–12) was calculated by the linear trapezoidal rule. Where more than one maximum occurred, the reported value was assigned to the first occurrence.

[4] = ref product label, cited from earlier work
[5] = human, plasma, iv, dosed alone, selumetinib 50 mg cohort (N = 25), temsirolimus 25 mg IV
[6] = human, plasma, iv, dosed alone, selumetinib 75 mg cohort (N = 6), temsirolimus 25 mg IV
[7] = human, plasma, iv, dosed in combination, selumetinib 50 mg BID (N = 22) + temsirolimus 25 mg IV
[8] = human, plasma, iv, dosed in combination, selumetinib 75 mg BID (N = 5) + temsirolimus 25 mg IV

O=C(NOC[C@H](O)CO)c1ccc(F)c(F)c1Nc1ccc(I)cc1F [PD-0325901]
patients reporting rash [1]: 49%

CO[C@H]1C[C@@H]2CC[C@@H](C)[C@@](O)(O2)C(=O)C(=O)N2CCCC[C@H]2C(=O)O[C@H]([C@H](C)C[C@@H]2CC[C@@H](OC(=O)C(C)(CO)CO)[C@H](OC)C2)CC(=O)[C@H](C)/C=C(\C)[C@@H](O)[C@@H](OC)C(=O)[C@H](C)C[C@H](C)/C=C/C=C/C=C/1C [Temsirolimus]
most common (incidence ≥30%) adverse reactions [2]: rash, asthenia, mucositis, nausea, edema, and anorexia | Cmax ([3]; dosed alone, selumetinib 75 mg cohort (N = 6), temsirolimus 25 mg IV): 749.2 (24.61) [5] ng/mL | AUC(0-t) [3, 5]: 1580 ng·h/mL | AUC(0–12) [3, 5]: 1880 ng·h/mL | Cmax ([3]; human, plasma, iv, dosed alone, selumetinib 50 mg cohort (N = 25), temsirolimus 25 mg IV, read-out: Cmax): 669 ng/mL | AUC(0-t) [3, 6]: 1740 ng·h/mL | AUC(0–12) [3, 6]: 1910 ng·h/mL | AUC(0-t) [3, 7]: 1460 ng·h/mL | AUC(0–12) [3, 7]: 1610 ng·h/mL | Cmax ([3]; human, plasma, iv, dosed in combination, selumetinib 50 mg BID (N = 22) + temsirolimus 25 mg IV, read-out: Cmax): 651 ng/mL | AUC(0-t) [3, 8]: 1540 ng·h/mL | AUC(0–12) [3, 8]: 1740 ng·h/mL | Cmax ([3]; human, plasma, iv, dosed in combination, selumetinib 75 mg BID (N = 5) + temsirolimus 25 mg IV, read-out: Cmax): 695 ng/mL | tmax ([3]; dosed in combination, selumetinib 50 mg BID (N = 22) + temsirolimus 25 mg IV): 1.0 (0.5–1.5) h | tmax ([3]; dosed in combination, selumetinib 75 mg BID (N = 5) + temsirolimus 25 mg IV): 0.5 (0.5–1.0) h | PK parameters when administered alone and in combination ([3]; selumetinib + temsirolimus arm): similar

CN(C)/N=N/c1[nH]cnc1C(N)=O [dacarbazine]
incidence of hepatic toxicity with hepatic vein thrombosis and hepatocellular necrosis resulting in death ([4]; patients treated): approximately 0.01% | patients affected by anorexia, nausea, and vomiting ([4]; with the initial few doses): Over 90%
